Data: ChEMBL document CHEMBL4507320, “Data for DCP probe NVS-MALT1” (2021)

Columns and labels:
[1] = biological target: TGF-beta receptor type-2 (Homo sapiens) (UniProt P37173); conditions: Compound concentration 1000.0 nM
[2] = biological target: Serine/threonine-protein kinase Nek9 (Homo sapiens) (UniProt Q8TD19); conditions: Compound concentration 1000.0 nM
[3] = biological target: Calcium/calmodulin-dependent protein kinase type IV (Homo sapiens) (UniProt Q16566); conditions: Compound concentration 1000.0 nM
[4] = biological target: Ephrin type-A receptor 7 (Homo sapiens) (UniProt Q15375); conditions: Compound concentration 1000.0 nM
[5] = system: Receptor-type tyrosine-protein kinase FLT3 (Homo sapiens), P36888 [K663Q]; conditions: Compound concentration 1000.0 nM
[6] = biological target: Casein kinase II subunit alpha' (Homo sapiens) (UniProt P19784); conditions: Compound concentration 1000.0 nM
[7] = biological target: Interleukin-1 receptor-associated kinase 3 (Homo sapiens) (UniProt Q9Y616); conditions: Compound concentration 1000.0 nM
[8] = biological target: Mitogen-activated protein kinase kinase kinase 14 (Homo sapiens) (UniProt Q99558); conditions: Compound concentration 1000.0 nM
[9] = biological target: Protein kinase C theta type (Homo sapiens) (UniProt Q04759); conditions: Compound concentration 1000.0 nM
[10] = biological target: Kappa-type opioid receptor (Homo sapiens) (UniProt P41145); conditions: Compound concentration 10.0 uM
[11] = biological target: Phosphatidylinositol 4,5-bisphosphate 3-kinase catalytic subunit gamma isoform (Homo sapiens) (UniProt P48736); conditions: Compound concentration 1000.0 nM
[12] = biological target: MAP kinase-interacting serine/threonine-protein kinase 1 (Homo sapiens) (UniProt Q9BUB5); conditions: Compound concentration 1000.0 nM
[13] = biological target: NUAK family SNF1-like kinase 2 (Homo sapiens) (UniProt Q9H093); conditions: Compound concentration 1000.0 nM
[14] = system: Phosphatidylinositol 4,5-bisphosphate 3-kinase catalytic subunit alpha isoform (Homo sapiens), P42336 [C420R]; conditions: Compound concentration 1000.0 nM
[15] = biological target: Protein kinase C delta type (Homo sapiens) (UniProt Q05655); conditions: Compound concentration 1000.0 nM
[16] = biological target: Mast/stem cell growth factor receptor Kit (Homo sapiens) (UniProt P10721); conditions: Compound concentration 1000.0 nM
Mast/stem cell growth factor receptor Kit (Homo sapiens), sequence (P10721 whole entry): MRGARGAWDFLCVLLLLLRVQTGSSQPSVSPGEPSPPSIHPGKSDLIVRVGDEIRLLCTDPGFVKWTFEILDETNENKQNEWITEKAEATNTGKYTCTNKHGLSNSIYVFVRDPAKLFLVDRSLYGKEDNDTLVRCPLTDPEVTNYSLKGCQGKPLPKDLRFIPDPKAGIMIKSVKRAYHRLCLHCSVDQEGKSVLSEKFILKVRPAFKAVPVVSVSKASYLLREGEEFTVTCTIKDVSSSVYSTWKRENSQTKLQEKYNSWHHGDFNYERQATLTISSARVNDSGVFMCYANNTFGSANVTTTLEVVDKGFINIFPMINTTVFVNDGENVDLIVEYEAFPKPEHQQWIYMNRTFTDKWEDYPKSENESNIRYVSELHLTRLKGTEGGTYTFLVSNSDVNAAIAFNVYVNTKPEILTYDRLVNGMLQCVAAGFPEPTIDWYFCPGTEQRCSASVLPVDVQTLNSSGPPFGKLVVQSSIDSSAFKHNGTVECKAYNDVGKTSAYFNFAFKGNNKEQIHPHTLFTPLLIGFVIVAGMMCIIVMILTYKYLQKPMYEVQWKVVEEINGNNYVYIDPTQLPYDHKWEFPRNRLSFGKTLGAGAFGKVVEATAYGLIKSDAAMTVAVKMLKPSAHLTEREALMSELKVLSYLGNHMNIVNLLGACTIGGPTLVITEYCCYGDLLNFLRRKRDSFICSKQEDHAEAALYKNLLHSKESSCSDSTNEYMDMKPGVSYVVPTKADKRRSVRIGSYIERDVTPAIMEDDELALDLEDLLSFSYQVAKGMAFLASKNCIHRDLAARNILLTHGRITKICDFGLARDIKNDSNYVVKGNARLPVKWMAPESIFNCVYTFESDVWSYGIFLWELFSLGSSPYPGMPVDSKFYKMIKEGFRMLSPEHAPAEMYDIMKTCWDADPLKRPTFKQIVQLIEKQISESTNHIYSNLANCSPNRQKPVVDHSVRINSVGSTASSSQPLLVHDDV

[17] = biological target: Receptor-type tyrosine-protein kinase FLT3 (Homo sapiens, UniProt P36888); conditions: Compound concentration 1000.0 nM
[18] = biological target: Receptor tyrosine-protein kinase erbB-4 (Homo sapiens) (UniProt Q15303); conditions: Compound concentration 1000.0 nM
[19] = biological target: RAC-gamma serine/threonine-protein kinase (Homo sapiens) (UniProt Q9Y243); conditions: Compound concentration 1000.0 nM
[20] = system: Phosphatidylinositol 4,5-bisphosphate 3-kinase catalytic subunit alpha isoform (Homo sapiens), P42336 [I800L]; conditions: Compound concentration 1000.0 nM
[21] = biological target: Rho-associated protein kinase 2 (Homo sapiens) (UniProt O75116); conditions: Compound concentration 1000.0 nM
[22] = biological target: Myosin light chain kinase, smooth muscle (Homo sapiens) (UniProt Q15746); conditions: Compound concentration 1000.0 nM
[23] = biological target: Mitogen-activated protein kinase 11 (Homo sapiens) (UniProt Q15759); conditions: Compound concentration 1000.0 nM
Mitogen-activated protein kinase 11 (Homo sapiens), sequence (Q15759 whole entry): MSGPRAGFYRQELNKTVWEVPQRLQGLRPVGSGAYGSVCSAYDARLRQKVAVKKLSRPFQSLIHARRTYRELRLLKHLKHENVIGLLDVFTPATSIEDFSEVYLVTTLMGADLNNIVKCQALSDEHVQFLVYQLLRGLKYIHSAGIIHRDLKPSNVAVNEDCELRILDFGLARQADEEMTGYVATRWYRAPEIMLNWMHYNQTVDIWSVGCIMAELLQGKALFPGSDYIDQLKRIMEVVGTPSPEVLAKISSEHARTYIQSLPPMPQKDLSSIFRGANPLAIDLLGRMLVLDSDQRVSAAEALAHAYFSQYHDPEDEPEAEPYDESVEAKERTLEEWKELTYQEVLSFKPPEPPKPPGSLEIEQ

[24] = biological target: Serine/threonine-protein kinase SIK2 (Homo sapiens) (UniProt Q9H0K1); conditions: Compound concentration 1000.0 nM
Serine/threonine-protein kinase SIK2 (Homo sapiens), sequence (Q9H0K1 whole entry, looked up, the tested form may be a part): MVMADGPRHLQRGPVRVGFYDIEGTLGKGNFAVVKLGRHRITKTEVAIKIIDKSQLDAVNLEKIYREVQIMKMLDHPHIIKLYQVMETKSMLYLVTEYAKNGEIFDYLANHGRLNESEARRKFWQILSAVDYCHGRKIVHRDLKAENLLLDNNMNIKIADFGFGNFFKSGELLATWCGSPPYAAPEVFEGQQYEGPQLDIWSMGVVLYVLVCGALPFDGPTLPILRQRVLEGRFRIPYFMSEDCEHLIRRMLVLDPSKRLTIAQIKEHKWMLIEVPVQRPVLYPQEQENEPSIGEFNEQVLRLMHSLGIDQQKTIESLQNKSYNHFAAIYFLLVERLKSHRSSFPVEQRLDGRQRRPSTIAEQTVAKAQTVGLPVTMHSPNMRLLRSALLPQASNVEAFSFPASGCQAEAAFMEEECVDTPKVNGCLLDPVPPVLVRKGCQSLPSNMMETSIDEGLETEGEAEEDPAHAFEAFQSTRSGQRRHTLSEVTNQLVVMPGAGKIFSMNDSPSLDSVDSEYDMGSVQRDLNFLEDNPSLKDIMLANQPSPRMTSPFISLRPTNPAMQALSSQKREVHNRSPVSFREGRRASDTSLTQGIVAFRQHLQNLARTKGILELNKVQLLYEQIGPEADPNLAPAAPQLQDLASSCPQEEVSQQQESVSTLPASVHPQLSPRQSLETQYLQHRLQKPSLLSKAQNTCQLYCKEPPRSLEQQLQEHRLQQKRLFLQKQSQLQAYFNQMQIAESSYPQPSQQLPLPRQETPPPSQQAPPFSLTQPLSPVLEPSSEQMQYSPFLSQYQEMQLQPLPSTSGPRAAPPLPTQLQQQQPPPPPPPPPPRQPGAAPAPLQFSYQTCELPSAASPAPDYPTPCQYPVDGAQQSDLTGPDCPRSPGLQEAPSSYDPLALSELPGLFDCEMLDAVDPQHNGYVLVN

[25] = biological target: Phosphatidylinositol 4-phosphate 3-kinase C2 domain-containing subunit beta (Homo sapiens) (UniProt O00750); conditions: Compound concentration 1000.0 nM
[26] = biological target: SRSF protein kinase 2 (Homo sapiens) (UniProt P78362); conditions: Compound concentration 1000.0 nM
[27] = biological target: Calcium/calmodulin-dependent protein kinase type II subunit beta (Homo sapiens) (UniProt Q13554); conditions: Compound concentration 1000.0 nM
[28] = system: Tyrosine-protein kinase ABL1 (Homo sapiens), P00519 [T315I]; conditions: Compound concentration 1000.0 nM
[29] = biological target: Serine/threonine-protein kinase pim-3 (Homo sapiens) (UniProt Q86V86); conditions: Compound concentration 1000.0 nM
[30] = biological target: Ephrin type-A receptor 1 (Homo sapiens) (UniProt P21709); conditions: Compound concentration 1000.0 nM
Ephrin type-A receptor 1 (Homo sapiens), sequence (P21709 whole entry): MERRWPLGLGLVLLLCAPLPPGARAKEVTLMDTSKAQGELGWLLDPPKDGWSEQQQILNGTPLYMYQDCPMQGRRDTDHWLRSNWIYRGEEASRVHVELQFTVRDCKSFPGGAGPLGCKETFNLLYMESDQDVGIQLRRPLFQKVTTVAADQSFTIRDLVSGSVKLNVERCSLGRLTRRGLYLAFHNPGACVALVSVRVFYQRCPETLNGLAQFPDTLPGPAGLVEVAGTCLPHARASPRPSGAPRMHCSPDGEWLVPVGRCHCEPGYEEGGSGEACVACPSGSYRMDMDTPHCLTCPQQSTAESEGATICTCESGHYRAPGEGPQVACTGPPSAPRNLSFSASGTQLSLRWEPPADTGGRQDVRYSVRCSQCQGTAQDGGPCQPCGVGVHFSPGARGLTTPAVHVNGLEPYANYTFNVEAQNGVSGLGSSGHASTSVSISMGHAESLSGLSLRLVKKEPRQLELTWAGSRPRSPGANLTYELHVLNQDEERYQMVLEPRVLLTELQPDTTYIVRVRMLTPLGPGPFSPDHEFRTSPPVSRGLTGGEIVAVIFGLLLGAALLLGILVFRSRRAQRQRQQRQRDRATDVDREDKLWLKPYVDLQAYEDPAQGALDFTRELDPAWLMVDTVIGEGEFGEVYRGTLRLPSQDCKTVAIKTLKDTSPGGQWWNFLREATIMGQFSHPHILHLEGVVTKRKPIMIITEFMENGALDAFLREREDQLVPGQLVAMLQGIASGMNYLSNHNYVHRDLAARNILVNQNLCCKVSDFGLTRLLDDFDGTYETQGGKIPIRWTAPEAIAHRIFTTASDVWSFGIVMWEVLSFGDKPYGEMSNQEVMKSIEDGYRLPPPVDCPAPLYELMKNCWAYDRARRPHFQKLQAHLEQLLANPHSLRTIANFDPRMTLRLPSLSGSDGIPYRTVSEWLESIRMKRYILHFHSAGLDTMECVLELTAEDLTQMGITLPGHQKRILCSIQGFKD

[31] = biological target: NUAK family SNF1-like kinase 1 (Homo sapiens) (UniProt O60285); conditions: Compound concentration 1000.0 nM
[32] = biological target: Serine/threonine-protein kinase PLK3 (Homo sapiens) (UniProt Q9H4B4); conditions: Compound concentration 1000.0 nM
[33] = biological target: Angiopoietin-1 receptor (Homo sapiens) (UniProt Q02763); conditions: Compound concentration 1000.0 nM
[34] = biological target: Atypical kinase COQ8A, mitochondrial (Homo sapiens) (UniProt Q8NI60); conditions: Compound concentration 1000.0 nM
[35] = biological target: Ephrin type-B receptor 3 (Homo sapiens) (UniProt P54753); conditions: Compound concentration 1000.0 nM
[36] = biological target: Mitogen-activated protein kinase kinase kinase 10 (Homo sapiens) (UniProt Q02779); conditions: Compound concentration 1000.0 nM
[37] = biological target: Fibroblast growth factor receptor 2 (Homo sapiens) (UniProt P21802); conditions: Compound concentration 1000.0 nM
[38] = biological target: Tyrosine-protein kinase Lyn (Homo sapiens) (UniProt P07948); conditions: Compound concentration 1000.0 nM
[39] = biological target: Inhibitor of nuclear factor kappa-B kinase subunit alpha (Homo sapiens) (UniProt O15111); conditions: Compound concentration 1000.0 nM
[40] = biological target: Protein-tyrosine kinase 2-beta (Homo sapiens) (UniProt Q14289); conditions: Compound concentration 1000.0 nM
Protein-tyrosine kinase 2-beta (Homo sapiens), sequence (Q14289 whole entry, looked up): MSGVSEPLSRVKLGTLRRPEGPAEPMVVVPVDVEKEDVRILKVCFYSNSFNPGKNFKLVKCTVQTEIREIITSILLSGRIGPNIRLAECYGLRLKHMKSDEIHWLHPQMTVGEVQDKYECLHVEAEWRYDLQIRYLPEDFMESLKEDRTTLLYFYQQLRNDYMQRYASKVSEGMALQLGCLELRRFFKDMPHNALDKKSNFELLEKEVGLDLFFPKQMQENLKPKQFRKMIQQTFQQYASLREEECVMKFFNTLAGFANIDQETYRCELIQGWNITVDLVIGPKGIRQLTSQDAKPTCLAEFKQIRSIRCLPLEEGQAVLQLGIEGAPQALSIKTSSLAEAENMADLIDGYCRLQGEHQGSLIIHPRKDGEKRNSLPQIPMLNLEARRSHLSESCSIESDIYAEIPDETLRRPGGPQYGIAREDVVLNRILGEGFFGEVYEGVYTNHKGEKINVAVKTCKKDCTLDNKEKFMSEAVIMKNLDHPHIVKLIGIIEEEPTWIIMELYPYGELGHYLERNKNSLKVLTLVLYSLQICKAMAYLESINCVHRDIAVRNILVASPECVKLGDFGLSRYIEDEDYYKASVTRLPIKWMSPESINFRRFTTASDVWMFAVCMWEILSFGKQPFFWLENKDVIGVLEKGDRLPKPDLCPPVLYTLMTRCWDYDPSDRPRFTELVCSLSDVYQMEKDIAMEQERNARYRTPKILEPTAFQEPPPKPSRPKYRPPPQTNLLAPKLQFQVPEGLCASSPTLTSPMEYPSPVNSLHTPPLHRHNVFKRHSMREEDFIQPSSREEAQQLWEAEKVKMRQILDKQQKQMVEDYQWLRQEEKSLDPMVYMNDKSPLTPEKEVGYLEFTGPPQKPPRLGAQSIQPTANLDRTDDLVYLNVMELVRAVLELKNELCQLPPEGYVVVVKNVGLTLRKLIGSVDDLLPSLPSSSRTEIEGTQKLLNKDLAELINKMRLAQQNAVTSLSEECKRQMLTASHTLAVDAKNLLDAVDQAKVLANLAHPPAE

[41] = biological target: Tyrosine-protein kinase Yes (Homo sapiens) (UniProt P07947); conditions: Compound concentration 1000.0 nM
Tyrosine-protein kinase Yes (Homo sapiens), sequence (P07947 2-543 limits assumed): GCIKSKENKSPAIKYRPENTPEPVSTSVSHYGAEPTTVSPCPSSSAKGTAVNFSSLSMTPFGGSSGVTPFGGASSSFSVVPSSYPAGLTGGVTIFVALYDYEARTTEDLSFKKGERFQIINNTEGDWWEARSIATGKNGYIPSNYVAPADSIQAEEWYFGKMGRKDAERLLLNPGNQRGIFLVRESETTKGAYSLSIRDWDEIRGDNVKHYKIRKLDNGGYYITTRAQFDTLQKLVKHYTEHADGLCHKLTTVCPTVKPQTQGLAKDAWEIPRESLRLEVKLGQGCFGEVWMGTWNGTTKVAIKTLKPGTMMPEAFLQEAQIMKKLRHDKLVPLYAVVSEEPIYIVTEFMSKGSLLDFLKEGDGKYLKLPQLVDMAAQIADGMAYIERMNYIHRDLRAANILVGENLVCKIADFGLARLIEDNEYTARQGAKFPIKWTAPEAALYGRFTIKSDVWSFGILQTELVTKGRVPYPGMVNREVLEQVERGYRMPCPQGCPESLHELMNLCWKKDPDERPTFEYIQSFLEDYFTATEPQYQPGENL

[42] = biological target: STE20/SPS1-related proline-alanine-rich protein kinase (Homo sapiens) (UniProt Q9UEW8); conditions: Compound concentration 1000.0 nM
[43] = biological target: cGMP-dependent protein kinase 2 (Homo sapiens) (UniProt Q13237); conditions: Compound concentration 1000.0 nM
[44] = biological target: Cyclin-dependent kinase 9 (Homo sapiens) (UniProt P50750); conditions: Compound concentration 1000.0 nM
[45] = biological target: D(1B) dopamine receptor (Homo sapiens) (UniProt P21918); conditions: Compound concentration 10.0 uM

CO[C@@H](C)c1c(Nc2ccc([C@@H](N(C)C(=O)C3CCS(=O)(=O)CC3)C(F)(F)F)cc2)cnc2cc(Cl)nn12 [NVS-MALT1-C]
inactive: residual activity [1] 100% | residual activity [2] 90% | residual activity [3] 100% | residual activity [4] 87% | residual activity [5] 94% | residual activity [6] 100% | residual activity [7] 86% | residual activity [8] 90% | residual activity [9] 98% | inhibition [10] 29.4% | residual activity [11] 87% | residual activity [12] 100% | residual activity [13] 100% | residual activity [14] 93% | residual activity [15] 90% | residual activity [16] 100% | residual activity [17] 64% | residual activity [18] 77% | residual activity [19] 65% | residual activity [20] 71% | residual activity [21] 100% | residual activity [22] 98% | residual activity [23] 86% | residual activity [24] 92% | residual activity [25] 89% | residual activity [26] 99% | residual activity [27] 96% | residual activity [28] 100% | residual activity [29] 97% | residual activity [30] 97% | residual activity [31] 99% | residual activity [32] 84% | residual activity [33] 90% | residual activity [34] 100% | residual activity [35] 100% | residual activity [36] 77% | residual activity [37] 84% | residual activity [38] 97% | residual activity [39] 100% | residual activity [40] 100% | residual activity [41] 100% | residual activity [42] 50% | residual activity [43] 100% | residual activity [44] 100% | inhibition [45] 4.72%

CO[C@@H](C)c1c(Nc2ccc([C@H](N(C)C(=O)C3CCS(=O)(=O)CC3)C(F)(F)F)cc2)cnc2cc(Cl)nn12 [NVS-MALT1]
inactive: residual activity [1] 100% | residual activity [2] 77% | residual activity [3] 100% | residual activity [4] 84% | residual activity [5] 100% | residual activity [6] 100% | residual activity [7] 68% | residual activity [8] 94% | residual activity [9] 93% | inhibition [10] 31.9% | residual activity [11] 83% | residual activity [12] 100% | residual activity [13] 100% | residual activity [14] 93% | residual activity [15] 79% | residual activity [16] 100% | residual activity [17] 68% | residual activity [18] 84% | residual activity [19] 100% | residual activity [20] 55% | residual activity [21] 100% | residual activity [22] 95% | residual activity [23] 79% | residual activity [24] 87% | residual activity [25] 97% | residual activity [26] 100% | residual activity [27] 94% | residual activity [28] 100% | residual activity [29] 86% | residual activity [30] 100% | residual activity [31] 98% | residual activity [32] 86% | residual activity [33] 84% | residual activity [34] 100% | residual activity [35] 100% | residual activity [36] 71% | residual activity [37] 91% | residual activity [38] 77% | residual activity [39] 100% | residual activity [40] 83% | residual activity [41] 99% | residual activity [42] 50% | residual activity [43] 100% | residual activity [44] 85% | inhibition [45] 9.7%
